Key:
[1] = target: GDP-bound KRAS wild-type protein (Homo sapiens, UniProt P01116); experiment: Binding to KRAS by surface plasmon resonance (SPR), Single Cycle Kinetics; settings: SPR, Single Cycle Kinetics, GDP-bound KRAS wild-type protein; read-out: KRAS KD
[2] = target: GDP-bound NRAS wild-type protein (Homo sapiens, UniProt P01111); experiment: Binding to NRAS by surface plasmon resonance (SPR), Single Cycle Kinetics; settings: SPR, GDP-bound NRAS wild-type protein vs GDP-bound KRAS wild-type protein
Chain of GDP-bound NRAS wild-type protein (P01111 whole entry): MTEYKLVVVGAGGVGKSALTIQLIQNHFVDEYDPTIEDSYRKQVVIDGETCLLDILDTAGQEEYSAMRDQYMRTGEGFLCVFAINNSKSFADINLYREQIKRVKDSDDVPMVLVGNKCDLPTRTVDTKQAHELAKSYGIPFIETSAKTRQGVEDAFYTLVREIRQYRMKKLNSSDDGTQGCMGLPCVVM

[3] = target: GDP-bound HRAS wild-type protein (Homo sapiens, UniProt P01112); experiment: Binding to HRAS by surface plasmon resonance (SPR), Single Cycle Kinetics; settings: SPR, GDP-bound HRAS wild-type protein vs GDP-bound KRAS wild-type protein
Chain of GDP-bound HRAS wild-type protein (P01112 whole entry): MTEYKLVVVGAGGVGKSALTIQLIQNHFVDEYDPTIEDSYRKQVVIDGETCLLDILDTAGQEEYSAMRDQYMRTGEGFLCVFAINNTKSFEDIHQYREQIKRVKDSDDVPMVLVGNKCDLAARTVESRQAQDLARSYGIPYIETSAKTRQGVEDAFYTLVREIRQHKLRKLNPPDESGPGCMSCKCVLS

Chain of GDP-bound KRAS wild-type protein (P01116 whole entry): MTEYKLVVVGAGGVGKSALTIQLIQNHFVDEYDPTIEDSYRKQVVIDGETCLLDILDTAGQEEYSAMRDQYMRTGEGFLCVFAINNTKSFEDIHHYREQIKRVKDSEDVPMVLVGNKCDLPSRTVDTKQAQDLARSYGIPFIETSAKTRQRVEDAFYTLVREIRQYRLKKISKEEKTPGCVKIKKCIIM

CCO[C@@H]1C[C@H]2C(=O)NC3(CCC3)C(=O)N(C)[C@@H](C3CCCC3)C(=O)N(C)[C@H](C(=O)N(C)C)CC(=O)N(C)[C@@H](CC)C(=O)N[C@@H]([C@@H](C)CC)C(=O)N(C)CC(=O)N(C)[C@H]3CCCCCN(C3=O)[C@@H](Cc3ccc(F)c(Cl)c3)C(=O)N(C)CC(=O)N[C@@H](CCc3cc(F)c(C(F)(F)F)c(F)c3)C(=O)N2C1 [PP0909]
Kd [1]: 0.48 nM | NRAS/KRAS (ratio of KD value for NRAS to KD value for KRAS) [2]: B (a compound having 3 or more and less than 10 is denoted as B) | HRAS/KRAS (ratio of KD value for HRAS to KD value for KRAS) [3]: B (a compound having 3 or more and less than 10 is denoted as B)

CCO[C@@H]1C[C@H]2C(=O)NC3(CCC3)C(=O)N(C)[C@@H](C3CCCC3)C(=O)N(C)[C@H](C(=O)N(C)C)CC(=O)N(C)[C@@H](CC)C(=O)N[C@@H]([C@@H](C)CC)C(=O)N(C)CC(=O)N(C)[C@H]3CCCCCN(C3=O)[C@@H](Cc3ccc(F)cc3C)C(=O)N(C)CC(=O)N[C@@H](CCc3cc(F)c(C(F)(F)F)c(F)c3)C(=O)N2C1 [PP0911]
Kd [1]: 0.06 nM | NRAS/KRAS (ratio of KD value for NRAS to KD value for KRAS) [2]: B (a compound having 3 or more and less than 10 is denoted as B) | HRAS/KRAS (ratio of KD value for HRAS to KD value for KRAS) [3]: B (a compound having 3 or more and less than 10 is denoted as B)

CCO[C@@H]1C[C@H]2C(=O)NC3(CCC3)C(=O)N(C)[C@@H](C3CCCC3)C(=O)N(C)[C@H](C(=O)N(C)C)CC(=O)N(C)[C@@H](CC)C(=O)N[C@@H]([C@@H](C)CC)C(=O)N(C)CC(=O)N(C)[C@H]3CCCCCN(C3=O)[C@@H](Cc3ccc(F)cc3OC)C(=O)N(C)CC(=O)N[C@@H](CCc3cc(F)c(C(F)(F)F)c(F)c3)C(=O)N2C1 [PP0914]
Kd [1]: 0.43 nM | NRAS/KRAS (ratio of KD value for NRAS to KD value for KRAS) [2]: B (a compound having 3 or more and less than 10 is denoted as B) | HRAS/KRAS (ratio of KD value for HRAS to KD value for KRAS) [3]: B (a compound having 3 or more and less than 10 is denoted as B)

CCO[C@@H]1C[C@H]2C(=O)NC3(CCC3)C(=O)N(C)[C@@H](C3CCCC3)C(=O)N(C)[C@H](C(=O)N(C)C)CC(=O)N(C)[C@@H](CC)C(=O)N[C@@H]([C@@H](C)CC)C(=O)N(C)CC(=O)N(C)[C@H]3CCCCCN(C3=O)[C@@H](Cc3ccc(F)c(OC)c3)C(=O)N(C)CC(=O)N[C@@H](CCc3cc(F)c(C(F)(F)F)c(F)c3)C(=O)N2C1 [PP0915]
Kd [1]: 0.14 nM | NRAS/KRAS (ratio of KD value for NRAS to KD value for KRAS) [2]: B (a compound having 3 or more and less than 10 is denoted as B) | HRAS/KRAS (ratio of KD value for HRAS to KD value for KRAS) [3]: B (a compound having 3 or more and less than 10 is denoted as B)

CCO[C@@H]1C[C@H]2C(=O)NC3(CCC3)C(=O)N(C)[C@@H](C3CCCC3)C(=O)N(C)[C@H](C(=O)N3CCOCC3)CC(=O)N(C)[C@@H](CC(C)C)C(=O)N[C@@H]([C@@H](C)CC)C(=O)N(C)CC(=O)N(C)[C@H]3CCCCCN(C3=O)[C@@H](Cc3ccc(F)cc3Cl)C(=O)N(C)CC(=O)N[C@@H](CCc3cc(F)c(C(F)(F)F)c(F)c3)C(=O)N2C1 [PP0918]
Kd [1]: 0.4 nM | NRAS/KRAS (ratio of KD value for NRAS to KD value for KRAS) [2]: B (a compound having 3 or more and less than 10 is denoted as B) | HRAS/KRAS (ratio of KD value for HRAS to KD value for KRAS) [3]: B (a compound having 3 or more and less than 10 is denoted as B)

CCO[C@@H]1C[C@H]2C(=O)NC3(CCC3)C(=O)N(C)[C@@H](C3CCCC3)C(=O)N(C)[C@H](C(=O)N3CCOCC3)CC(=O)N(C)[C@@H](CC(C)C)C(=O)N[C@@H]([C@@H](C)CC)C(=O)N(C)CC(=O)N(C)[C@H]3CCCCCN(C3=O)[C@@H](Cc3ccc(F)c(Cl)c3)C(=O)N(C)CC(=O)N[C@@H](CCc3cc(F)c(C(F)(F)F)c(F)c3)C(=O)N2C1 [PP0919]
Kd [1]: 0.81 nM | NRAS/KRAS (ratio of KD value for NRAS to KD value for KRAS) [2]: B (a compound having 3 or more and less than 10 is denoted as B) | HRAS/KRAS (ratio of KD value for HRAS to KD value for KRAS) [3]: B (a compound having 3 or more and less than 10 is denoted as B)

CCO[C@@H]1C[C@H]2C(=O)NC3(CCC3)C(=O)N(C)[C@@H](C3CCCC3)C(=O)N(C)[C@H](C(=O)N3CCOCC3)CC(=O)N(C)[C@@H](CC(C)C)C(=O)N[C@@H]([C@@H](C)CC)C(=O)N(C)CC(=O)N(C)[C@H]3CCCCCN(C3=O)[C@@H](Cc3ccc(F)c(C)c3)C(=O)N(C)CC(=O)N[C@@H](CCc3cc(F)c(C(F)(F)F)c(F)c3)C(=O)N2C1 [PP0922]
Kd [1]: 0.5 nM | NRAS/KRAS (ratio of KD value for NRAS to KD value for KRAS) [2]: B (a compound having 3 or more and less than 10 is denoted as B) | HRAS/KRAS (ratio of KD value for HRAS to KD value for KRAS) [3]: B (a compound having 3 or more and less than 10 is denoted as B)

CCO[C@@H]1C[C@H]2C(=O)NC3(CCC3)C(=O)N(C)[C@@H](C3CCCC3)C(=O)N(C)[C@H](C(=O)N3CCOCC3)CC(=O)N(C)[C@@H](CC(C)C)C(=O)N[C@@H]([C@@H](C)CC)C(=O)N(C)CC(=O)N(C)[C@H]3CCCCCN(C3=O)[C@@H](Cc3ccc(F)cc3OC)C(=O)N(C)CC(=O)N[C@@H](CCc3cc(F)c(C(F)(F)F)c(F)c3)C(=O)N2C1 [PP0924]
Kd [1]: 0.82 nM | NRAS/KRAS (ratio of KD value for NRAS to KD value for KRAS) [2]: B (a compound having 3 or more and less than 10 is denoted as B) | HRAS/KRAS (ratio of KD value for HRAS to KD value for KRAS) [3]: B (a compound having 3 or more and less than 10 is denoted as B)

CCO[C@@H]1C[C@H]2C(=O)NC3(CCC3)C(=O)N(C)[C@@H](C3CCCC3)C(=O)N(C)[C@H](C(=O)N3CCOCC3)CC(=O)N(C)[C@@H](Cc3ccccc3F)C(=O)N[C@@H]([C@@H](C)CC)C(=O)N(C)CC(=O)N(C)[C@H]3CCCCCN(C3=O)[C@@H](Cc3ccc(C(F)(F)F)cc3)C(=O)N(C)CC(=O)N[C@@H](CCc3cc(F)c(C(F)(F)F)c(F)c3)C(=O)N2C1 [PP0926]
Kd [1]: 2.4 nM | NRAS/KRAS (ratio of KD value for NRAS to KD value for KRAS) [2]: B (a compound having 3 or more and less than 10 is denoted as B) | HRAS/KRAS (ratio of KD value for HRAS to KD value for KRAS) [3]: B (a compound having 3 or more and less than 10 is denoted as B)

CCO[C@@H]1C[C@H]2C(=O)NC3(CCC3)C(=O)N(C)[C@@H](C3CCCC3)C(=O)N(C)[C@H](C(=O)N3CCOCC3)CC(=O)N(C)[C@@H](Cc3ccc(F)c(F)c3)C(=O)N[C@@H]([C@@H](C)CC)C(=O)N(C)CC(=O)N(C)[C@H]3CCCCCN(C3=O)[C@@H](Cc3ccc(C(F)(F)F)cc3)C(=O)N(C)CC(=O)N[C@@H](CCc3cc(F)c(C(F)(F)F)c(F)c3)C(=O)N2C1 [PP0928]
Kd [1]: 1 nM | NRAS/KRAS (ratio of KD value for NRAS to KD value for KRAS) [2]: A (a compound having 10 or more and less than 20 is denoted as A) | HRAS/KRAS (ratio of KD value for HRAS to KD value for KRAS) [3]: B (a compound having 3 or more and less than 10 is denoted as B)

CCO[C@@H]1C[C@H]2C(=O)NC3(CCC3)C(=O)N(C)[C@@H](C3CCCC3)C(=O)N(C)[C@H](C(=O)N3CCOCC3)CC(=O)N(C)[C@@H](Cc3ccccc3Cl)C(=O)N[C@@H]([C@@H](C)CC)C(=O)N(C)CC(=O)N(C)[C@H]3CCCCCN(C3=O)[C@@H](Cc3ccc(C(F)(F)F)cc3)C(=O)N(C)CC(=O)N[C@@H](CCc3cc(F)c(C(F)(F)F)c(F)c3)C(=O)N2C1 [PP0929]
Kd [1]: 2.7 nM | NRAS/KRAS (ratio of KD value for NRAS to KD value for KRAS) [2]: A (a compound having 10 or more and less than 20 is denoted as A) | HRAS/KRAS (ratio of KD value for HRAS to KD value for KRAS) [3]: B (a compound having 3 or more and less than 10 is denoted as B)

CCO[C@@H]1C[C@H]2C(=O)NC3(CCC3)C(=O)N(C)[C@@H](C3CCCC3)C(=O)N(C)[C@H](C(=O)N3CCOCC3)CC(=O)N(C)[C@@H](Cc3ccccc3C)C(=O)N[C@@H]([C@@H](C)CC)C(=O)N(C)CC(=O)N(C)[C@H]3CCCCCN(C3=O)[C@@H](Cc3ccc(C(F)(F)F)cc3)C(=O)N(C)CC(=O)N[C@@H](CCc3cc(F)c(C(F)(F)F)c(F)c3)C(=O)N2C1 [PP0931]
Kd [1]: 1.9 nM | NRAS/KRAS (ratio of KD value for NRAS to KD value for KRAS) [2]: A (a compound having 10 or more and less than 20 is denoted as A) | HRAS/KRAS (ratio of KD value for HRAS to KD value for KRAS) [3]: B (a compound having 3 or more and less than 10 is denoted as B)

CCO[C@@H]1C[C@H]2C(=O)NC3(CCC3)C(=O)N(C)[C@@H](C3CCCC3)C(=O)N(C)[C@H](C(=O)N3CCOCC3)CC(=O)N(C)[C@@H](Cc3ccc(C)cc3)C(=O)N[C@@H]([C@@H](C)CC)C(=O)N(C)CC(=O)N(C)[C@H]3CCCCCN(C3=O)[C@@H](Cc3ccc(C(F)(F)F)cc3)C(=O)N(C)CC(=O)N[C@@H](CCc3cc(F)c(C(F)(F)F)c(F)c3)C(=O)N2C1 [PP0933]
Kd [1]: 1.6 nM | NRAS/KRAS (ratio of KD value for NRAS to KD value for KRAS) [2]: A (a compound having 10 or more and less than 20 is denoted as A) | HRAS/KRAS (ratio of KD value for HRAS to KD value for KRAS) [3]: B (a compound having 3 or more and less than 10 is denoted as B)

CCO[C@@H]1C[C@H]2C(=O)NC3(CCC3)C(=O)N(C)[C@@H](C3CCCC3)C(=O)N(C)[C@H](C(=O)N(C)C)CC(=O)N(C)[C@@H](Cc3cccc(F)c3)C(=O)N[C@@H]([C@@H](C)CC)C(=O)N(C)CC(=O)N(C)[C@H]3CCCCCN(C3=O)[C@@H](Cc3ccc(C(F)(F)F)cc3)C(=O)N(C)CC(=O)N[C@@H](CCc3cc(F)c(C(F)(F)F)c(F)c3)C(=O)N2C1 [PP0935]
Kd [1]: 0.43 nM | NRAS/KRAS (ratio of KD value for NRAS to KD value for KRAS) [2]: B (a compound having 3 or more and less than 10 is denoted as B) | HRAS/KRAS (ratio of KD value for HRAS to KD value for KRAS) [3]: B (a compound having 3 or more and less than 10 is denoted as B)

CCO[C@@H]1C[C@H]2C(=O)NC3(CCC3)C(=O)N(C)[C@@H](C3CCCC3)C(=O)N(C)[C@H](C(=O)N(C)C)CC(=O)N(C)[C@@H](Cc3ccc(F)cc3)C(=O)N[C@@H]([C@@H](C)CC)C(=O)N(C)CC(=O)N(C)[C@H]3CCCCCN(C3=O)[C@@H](Cc3ccc(C(F)(F)F)cc3)C(=O)N(C)CC(=O)N[C@@H](CCc3cc(F)c(C(F)(F)F)c(F)c3)C(=O)N2C1 [PP0936]
Kd [1]: 0.42 nM | NRAS/KRAS (ratio of KD value for NRAS to KD value for KRAS) [2]: B (a compound having 3 or more and less than 10 is denoted as B) | HRAS/KRAS (ratio of KD value for HRAS to KD value for KRAS) [3]: B (a compound having 3 or more and less than 10 is denoted as B)

Source: patent US20240158446A1, “CYCLIC COMPOUND HAVING SELECTIVE INHIBITORY ACTION ON KRAS OVER HRAS AND NRAS” (CHUGAI SEIYAKU KABUSHIKI KAISHA, priority 2021, published 2024)
